Data as given in patent US20240116946A1 (Gilead Sciences, Inc., priority 2022, published 2024).
Read-outs that look alike come from different tables or passages of the source.

Legend:
SARS-CoV-2-NLuc = experiment: microbe, parasite or virus in culture; assay type: cell-based, SARS Coronavirus 2
[1] = biological target: recombinant SARS-CoV-2 Main protease (Mpro) (Severe acute respiratory syndrome coronavirus 2 (2019-nCoV) (SARS-CoV-2), UniProt P0DTD1); experiment: Cov Mpro Biochemical IC50 Assay; details: read-out: MPro IC50
[2] = Severe acute respiratory syndrome coronavirus, 48 h, read-out: MPro EC50
[3] = recombinant SARS-CoV-2 Mpro, fluorogenic peptide substrate
[4] = Severe acute respiratory syndrome coronavirus, 48 h; read-out: MPro EC50
[5] = recombinant SARS-CoV-2 Mpro 7.5 nM, fluorogenic peptide substrate 40 μM

| Structure (SMILES) | EC50 (SARS-CoV-2-NLuc; [2]) [nM] | IC50 [1, 3] [nM] | EC50 (SARS-CoV-2-NLuc; [4]) [nM] | IC50 [1, 5] [nM] | EC50 (SARS-CoV-2-NLuc; read-out: MPro EC50) [nM] |
| --- | --- | --- | --- | --- | --- |
| Cc1cc(-c2cccc(Cl)c2-c2ccc3c(=O)n(-c4cncc5ccccc45)c(=O)[nH]c3c2)cn2ncnc12 [Example 102] | 16.1 | 15.7 | – | – | – |
| Cn1ncc2cncc(-n3c(=O)[nH]c4cc(-c5c(F)ccc6[nH]ncc56)sc4c3=O)c21 [Example 1014, 6-(5-fluoro-1H-indazol-4-yl)-3-(1-methylpyrazolo[4,3-c]pyridin-7-yl)-1H-thieno[3,2-d]pyrimidine-2,4-dione] | – | – | > 1000 | > 1000 | – |
| Cc1ncc(-c2cccc(Cl)c2-c2cc3[nH]c(=O)n(-c4cncc5ccccc45)c(=O)c3s2)n1C [Example 521] | 129 | – | – | 14.9 | – |
| COc1ccc(Cl)c(-c2cc3[nH]c(=O)n(-c4cncc5ccc(F)cc45)c(=O)c3s2)c1 [Example 623, 6-(2-chloro-5-methoxy-phenyl)-3-(6-fluoro-4-isoquinolyl)-1H-thieno[3,2-d]pyrimidine-2,4-dione] | – | – | 30 | 11.5 | – |
| Cc1n[nH]cc1-c1cccc(Cl)c1-c1ccc2c(=O)n(-c3cncc4ccccc34)c(=O)[nH]c2c1 [Example 261] | 98.6 | 79 | – | – | – |
| N#CCCn1c(=O)n(-c2cnccn2)c(=O)c2sc(-c3ccccc3Cl)cc21 [Example 828] | 458 | – | – | 94.1 | – |
| Cc1cc(-c2cccc(Cl)c2-c2cc3[nH]c(=O)n(-c4cncc5ccccc45)c(=O)c3s2)cnn1 [Example 111, 6-(2-chloro-6-(6-methylpyridazin-4-yl)phenyl)-3-(isoquinolin-4-yl)thieno[3,2-d]pyrimidine-2,4(1H,3H)-dione] | – | 6.88 | 78.9 | – | – |
| N#Cc1cc(F)c(F)cc1-c1cc2[nH]c(=O)n(-c3cncc4ccccc34)c(=O)c2s1 [Example 540] | > 50000 | – | – | 911 | – |
| Cn1cc(-c2cccc(Cl)c2-c2ccc3c(=O)n(-c4cncc5ccccc45)c(=O)[nH]c3c2)c(C2CC2)n1 [Example 262] | < 4.41 | 6.12 | – | – | – |
| O=c1[nH]c2cc(-c3cc(F)c(F)cc3Cl)sc2c(=O)n1-c1cncc2ccccc12 [Example 286] | 60.3 | 34.8 | – | – | – |
| COc1cc(-c2cc3[nH]c(=O)n(-c4cncc5ccn(C)c45)c(=O)c3s2)c(Cl)cc1F (single isomer, unassigned) [Example 958, 6-(2-chloro-4-fluoro-5-methoxyphenyl)-3-(1-methyl-1H-pyrrolo[3,2-c]pyridin-7-yl)thieno[3,2-d]pyrimidine-2,4(1H,3H)-dione] | – | – | – | 11.2 | 13.3 |
| Cc1cc(F)ccc1-c1cc2[nH]c(=O)n(-c3cncc4ccccc34)c(=O)c2s1 [Example 177] | 137 | 89.7 | – | – | – |
| COc1cc(-c2cc3[nH]c(=O)n(-c4cncc5ccccc45)c(=O)c3s2)c(Cl)cc1F (single isomer, unassigned) [Example 557, 6-(2-chloro-4-fluoro-5-methoxyphenyl)-3-(isoquinolin-4-yl)thieno[3,2-d]pyrimidine-2,4(1H,3H)-dione] | – | – | – | 103 | 65.4 |
| COc1cc(-c2cc3[nH]c(=O)n(-c4cncc5sc(C#N)c(C)c45)c(=O)c3s2)c(Cl)cc1F [Example 1051] | 5.16 | – | – | 6.82 | – |
| COc1cccc(F)c1-c1ccc2c(=O)n(-c3cncc4ccccc34)c(=O)[nH]c2c1 [Example 61] | 648 | 914 | – | – | – |
| O=c1[nH]c2cc(-c3ccccc3Cl)sc2c(=O)n1-c1cncc2ccccc12 (single isomer, unassigned) [Example 151, 6-(2-chlorophenyl)-3-(isoquinolin-4-yl)thieno[3,2-d]pyrimidine-2,4(1H,3H)-dione] | – | < 2.54 | – | – | 1.73 |
| O=c1[nH]c2cc(-c3ccsc3Cl)sc2c(=O)n1-c1cncc2ccccc12 [Example 21] | 204 | 32.5 | – | – | – |
| COc1cnc(C)c(-c2cc3[nH]c(=O)n(-c4cncc5ccccc45)c(=O)c3s2)c1 [Example 718] | 371 | – | – | 106 | – |
| O=C1NCc2ccc(-c3cccc(Cl)c3-c3ccc4c(=O)n(-c5cncc6ccccc56)c(=O)[nH]c4c3)cc21 [Example 236] | 228 | 86.8 | – | – | – |
| COc1ccc(C#N)c(-c2cc3[nH]c(=O)n(-c4cncc5ccccc45)c(=O)c3cc2F)c1 [Example 428, 2-(6-fluoro-3-(isoquinolin-4-yl)-2,4-dioxo-1,2,3,4-tetrahydroquinazolin-7-yl)-4-methoxybenzonitrile] | 17.9 | – | – | 10.2 | – |
| O=c1[nH]c2nc(-c3ccccc3)ccc2c(=O)n1-c1cncc2ccccc12 [Example 31] | – | 14800 | > 50000 | – | – |
| COc1cc(-c2cc3[nH]c(=O)n(-c4cncc5scc(C)c45)c(=O)c3s2)c(Cl)cc1F [Example 611, 6-(2-chloro-4-fluoro-5-methoxyphenyl)-3-(3-methylthieno[2,3-c]pyridin-4-yl)thieno[3,2-d]pyrimidine-2,4(1H,3H)-dione] | 4.95 | – | – | < 2.54 | – |
| N#CCCn1c(=O)n(-c2cncc(C(F)(F)F)c2)c(=O)c2sc(-c3ccccc3C#N)cc21 [Example 890] | – | – | 247 | 75 | – |

| Structure (SMILES) | EC50 (SARS-CoV-2-NLuc; [2]) [nM] | IC50 [1, 3] [nM] | EC50 (SARS-CoV-2-NLuc; [4]) [nM] | IC50 [1, 5] [nM] | EC50 (SARS-CoV-2-NLuc; read-out: MPro EC50) [nM] |
| --- | --- | --- | --- | --- | --- |
| COc1ccc(Cl)c(-c2ccc3c(=O)n(-c4cncc5ccccc45)c(=O)[nH]c3c2)c1F [Example 322] | 1300 | 3530 | – | – | – |
| COc1cc(-c2cc3[nH]c(=O)n(-c4cncc5cnn(CC(F)(F)F)c45)c(=O)c3s2)c(Cl)cc1F [Example 507] | 39.2 | – | – | 18.8 | – |
| O=c1[nH]c2cc(-c3c(Cl)cccc3-c3ccnc(C(F)(F)F)c3)ccc2c(=O)n1-c1cncc2ccccc12 [Example 334] | 81.9 | 78.6 | – | – | – |
| Cn1ncc2c(-c3cc4[nH]c(=O)n(-c5cncc6cnn(C)c56)c(=O)c4s3)c(Cl)ccc21 [Example 670] | 585 | – | – | 146 | – |
| O=c1[nH]c2cc(-c3c(Cl)cccc3-c3cnn4c3OCCC4)sc2c(=O)n1-c1cncc2ccccc12 [Example 528] | 7.22 | – | – | 7.09 | – |
| Cn1cc(-c2cccc(Cl)c2-c2ccc3c(=O)n(-c4cncc5ccccc45)c(=O)[nH]c3c2)cn1 [Example 144] | 68.2 | 95.4 | – | – | – |
| O=c1[nH]c2cc(-c3ccccc3Cl)sc2c(=O)n1-c1cncc(C(F)(F)F)c1 [Example 576, 6-(2-chlorophenyl)-3-(5-(trifluoromethyl)pyridin-3-yl)thieno[3,2-d]pyrimidine-2,4(1H,3H)-dione] | – | – | 153 | 174 | – |
| Cc1ccc(-c2cc3c(s2)c(=O)n(-c2cncc4cnn(C)c24)c(=O)n3CCC#N)c(C#N)c1 [Example 840] | 43.3 | – | – | 16.8 | – |
| Cc1ccncc1-n1c(=O)[nH]c2cc(-c3ccccc3Cl)ccc2c1=O [Example 121, 7-(2-chlorophenyl)-3-(4-methylpyridin-3-yl)quinazoline-2,4(1H,3H)-dione] | 1150 | 708 | – | – | – |
| COc1ccc(Cl)c(-c2cc3[nH]c(=O)n(-c4cncc5ccc(N6CCn7cc(C(F)(F)F)nc7C6)cc45)c(=O)c3s2)c1 [Example 610] | 13.9 | – | – | < 2.54 | – |
| COc1ccc(C#N)c(-c2cc3[nH]c(=O)n(-c4cncc5ccccc45)c(=O)c3s2)c1 (single isomer, unassigned) [Example 555, 2-(3-(isoquinolin-4-yl)-2,4-dioxo-1,2,3,4-tetrahydrothieno[3,2-d]pyrimidin-6-yl)-4-methoxybenzonitrile] | – | – | – | 21.5 | 79.6 |
| COc1cc(-c2cc3c(s2)c(=O)n(-c2cncc4ccc(C)nc24)c(=O)n3CCC#N)c(Cl)cc1F [Example 906] | 2.41 | – | – | 4.35 | – |
| CC(=O)NCCn1c(=O)n(-c2cncc3ccccc23)c(=O)c2sc(-c3ccccc3Cl)cc21 [Example 614] | – | – | – | 35 | 64 |
| O=c1[nH]c2cc(-c3c(Cl)cccc3-c3ccnnc3)ccc2c(=O)n1-c1cncc2ccccc12 [Example 101, 7-(2-chloro-6-(pyridazin-4-yl)phenyl)-3-(isoquinolin-4-yl)quinazoline-2,4(1H,3H)-dione] | – | 13.7 | 73.8 | – | – |
| Cc1ccnc(Cl)c1-c1cc2[nH]c(=O)n(-c3cncc4ccccc34)c(=O)c2s1 [Example 290] | 484 | 159 | – | – | – |
| N#Cc1ncccc1-c1ccc2c(=O)n(-c3cncc4ccccc34)c(=O)[nH]c2c1 [Example 62] | 3150 | 904 | – | – | – |
| Cn1ncc2cncc(-n3c(=O)c4sc(-c5cc(Cl)ccc5C#N)cc4n(CCC#N)c3=O)c21 [Example 774] | 19.4 | – | – | 6.33 | – |
| CC(=O)N1CCN(c2ccc3cncc(-n4c(=O)[nH]c5cc(-c6ccccc6Cl)sc5c4=O)c3c2)CC1 [Example 387] | 30.3 | < 2.54 | – | – | – |
| Cc1cc(-c2cccc(Cl)c2-c2ccc3c(=O)n(-c4cncc5ccccc45)c(=O)[nH]c3c2)ccc1C(N)=O [Example 244] | 41 | 18.1 | – | – | – |
| N#Cc1ncccc1-c1cc2[nH]c(=O)n(-c3cncc4ccccc34)c(=O)c2s1 [Example 538] | 826 | – | – | 59.8 | – |
| COc1ccc(C#N)c(-c2cc3[nH]c(=O)n(-c4cncc5cccnc45)c(=O)c3s2)c1 [Example 460, 2-(3-(1,6-naphthyridin-8-yl)-2,4-dioxo-1,2,3,4-tetrahydrothieno[3,2-d]pyrimidin-6-yl)-4-methoxybenzonitrile] | 60.7 | – | – | 9.01 | – |
| COc1cnc(C#N)c(-c2cc3c(s2)c(=O)n(-c2cncc4nn(C)c(C)c24)c(=O)n3CCC#N)c1 [Example 1087] | > 1000 | – | – | 60.2 | – |
| O=c1[nH]c2cc(-c3ccccc3Cl)sc2c(=O)n1-c1cncc2cnccc12 [Example 584] | 31.9 | – | – | 12.9 | – |
